# Data: patent US5496703A, “Indirect immunoassay for dioxinlike compounds” (priority 1993, dated 1996)
# Entries after “also recorded” stand apart in the source; their conditions may differ.
# Assays:
# [1] = system: protein tyrosylphosphorylation in X3 human lymphoblastoma cells; test: Immunoblot / densitometry of X3 cell lysate phosphotyrosyl proteins; type: cell-based
# Procedure: The indicated densitometric measurements were made on a BioImage AK Kodak Visage 110.
# (§1) The X3 human lymphoblastoma cells (Genetest, Wolburn, Mass.) were grown in 75 cm^2 T-flasks in RPMI 1640 medium (Gibco) containing 9% horse serum. Any cell or cell line expressing cytochrome P-450IA1 may be used. The cells were cultured at 37° C. in a 5% CO2 (balance air) environment. Cells were subcultured by centrifuging (1000 rpm, 3 minutes) and resuspended in fresh media to a volume of 50 mL (at a cell density of 1.0×10^6 cells/mL). The TCDD-corn oil solution was homogenized with serum to a final concentration of 0.10 μg/mL. The TCDD-serum was added at concentrations of 0, 0.02, 0.05, 0.1, 0.5 and 1.0 nM per flask and incubated for 16 hours. After the appropriate incubation time, the cells were harvested by centrifugation and washed three times (PBS, […]). A final cell count was then determined.
# The separation of cell lysate proteins by means of SDS PAGE was performed by mixing the cell lysate 1:1 with a double strength sodium dodecyl sulfate sample buffer and heating the solution at 100° C. for 3 minutes prior to one-dimensional SDS polyacrylamide gel electrophoresis with 10% polyacrylamide. After electrophoresis, a Milliblot SDE electroblot apparatus (Millipore, Bedford, Mass.) was used to transfer the proteins from the polyacrylamide gels to an Immobilon™ membrane filter (Millipore). Complete transfers were accomplished in 25-30 min at 500 mA and were assessed by tracking pre-stained molecular weight standards onto the membrane filter. Membrane filters were blocked by incubating in TBS (Tris buffered saline) containing 5% milk for 30 minutes at 37° C. The membranes were then washed in TBST (TBS with 0.05% Tween 20) and incubated overnight with antiphoshphotyrosine monoclonal antibody (1.5 μg/mL) in TBST. The primary antibody was removed, and the membranes were washed four times in TBST. To visualize the antibody reaction, the membranes were incubated for 3 hours at 37° C. with alkaline phosphatase-conjugated antimouse IgG diluted 1:1000 in TBST, washed 3 times in TBST, and developed for 15 to 30 minutes. Determination of molecular weights of immuno-stained proteins was performed by adding molecular weight standards (Bio Rad) to reference lanes and staining the membrane filters with amido black.
# An estimate of the limit of detection of dioxinlike activity can be made using the 0.2 nM dose as the minimally effective dose. At this level of administration the 57 kDalton band becomes easily visible. Assuming a 100 μL incubation well (e.g., in a 96 well microtiter plate), the diethyl ether extract would have to contain approximately 37.5 pg of dioxin equivalents to initiate a tyrosylphosphorylation of the 57 kDalton protein. This amount would be present in the extract of a 2 g sample containing 20 parts per trillion of dioxin equivalents. If the 33 kDalton protein were used to quantitate the dioxinlike activity, the limit of detection based upon a response at the EC50 of 0.04 nM, would be approximately 4 ppt. Since it is generally believed that an action concentration of dioxin is 50 ppt and current instrumental methods detect approximately 3.5 ppt, this level of analysis is sufficient for initial regulatory or health considerations.
# phospholipase C = settings: certain cell lines; cited from earlier work
# EGF receptor = settings: cited from earlier work
# protein kinase C = settings: cited from earlier work
# [2] = system: cytochrome P-450IA1 aryl hydrocarbon hydroxylase; settings: 3 days post-injection (Poland et al. 1974); cited from earlier work
# [3] = system: total cell lysate protein tyrosylphosphorylation in X3 human lymphoblastoma cells; test: ELISA with antiphosphotyrosine monoclonal antibody, X3 cell lysate; type: cell-based; settings: 16 hours
# Procedure: as §1
# ELISA were performed with 96-well microtiter plates precoated with antigen. X3 cell lysate was used as antigen and was prepared as a series of geometric dilutions ranging from 0.4 to 500 μg protein/mL PBS. One-tenth mL from each dilution was promptly pipetted into the wells of the microtiter plate in quadruplicate. […] Peroxidase activity was determined after incubation with substrate (0.03% H2 O2 and 1 mM 2,2'-azinodi(d-ethyl-benzthiazoline sulfonic acid-6) dissolved in 100 mM sodium citrate (pH 4.2) at 22° C. At the first visualization of color change A415 values were recorded.
# Ah receptor = settings: cited from earlier work
# human receptor = settings: cited from earlier work
structure (smiles),measurement,setting,value
"Clc1cc2c(cc1Cl)Oc1cc(Cl)c(Cl)cc1O2 [TCDD, 2,3,7,8-tetrachlorodibenzo-p-dioxin]",minimal effective concentration,"[1]; Homo sapiens, 16 h, limit-of-detection estimate, read-out: minimally effective dose (57 kDalton band easily visible)",0.0002 µM
same,EC50,"[1]; Homo sapiens, densitometry of immunoblot, 16 hours, read-out: EC50, 33 kDalton protein tyrosylphosphorylation",40 pM
same,concentration of maximal 33 kDalton protein tyrosylphosphorylation,"[1]; densitometry of immunoblot, 16 hours",0.1 nM
same,pTP at 57 kDaltons,[1]; immunoblot,highly phosphorylated at tyrosine residues; also recorded: appeared in all X3 cells treated with TCDD
same,pTP at 110 kDaltons,[1]; immunoblot,decreased with increasing TCDD concentration; also recorded: decreased in intensity
same,phospholipase C activation,phospholipase C,activates protein kinase C in certain cell lines but also phospholipase C
same,plasma membrane EGF receptor levels,EGF receptor,up-regulates plasma membrane EGF receptor levels
same,protein kinase C activity,protein kinase C,increases the activity of protein kinase C
same,"published ED50, induction of aryl hydrocarbon hydroxylase specific activity",[2],approximately 3 μg/kg
same,concentration of maximal total protein tyrosylphosphorylation,[3],1 nM
same,EC50,[3]; Homo sapiens,130 pM
same,hepatic level of TCDD binding Ah receptor,Ah receptor; DBA/2 mouse,less than 1 fmol of receptor/mg of cytosolic protein
same,binding to DBA/2 mouse receptor,Ah receptor,Weaker binding
same,binding to human receptor,human receptor,Weaker binding
